By melting point is commonly meant the temperature of the solid-liquid transition.

`CCCCC(CC)COC(=O)C(=Cc1ccc(-c2nc3ccccc3o2)cc1)C(=O)CC` (stereo unspecified) had a melting point of 82 to 83 °C.

Consider `CC(=O)OC1CSC(Oc2cccc(-c3cccnc3F)c2)C(OC(C)=O)C1OC(C)=O` (stereo unspecified), for which the melting point was found to be 116 °C. As for `COc1ccc(Cc2cc(C3CCN(C(=O)Nc4ccccc4)CC3)nc(N)n2)cc1`, the figure is 178 to 180 °C; as for `COc1ccccc1Nc1ncc2cc(-c3c(Cl)cccc3Cl)c(=O)n(C)c2n1`, 200 to 201 °C; as for `CNc1ccc2c(c1N)C(=O)OC21c2cc(F)c(O)cc2Oc2cc(O)c(F)cc21`, 265 °C. The figure for `CCn1c(=O)c2[nH]c(/C=C/c3ccc(Br)cc3)nc2n(CC)c1=O` is more than 270 °C. The figure for `C=CC1CC1(C(C)=O)C(=O)Nc1ccccc1` (stereo unspecified) is 104 to 105 °C; for `CC(=O)CNC1(c2ccc(OC(C)=O)cc2)Sc2ccccc2N(C)C1=O` (stereo unspecified) it is 182 to 184 °C; for `CC(C)CCN1C(=O)C(NC(=O)Oc2ccccc2)C(=O)N(c2ccccc2F)c2ccccc21` (stereo unspecified) it is 226 to 227 °C.

Compound `COc1cc(C)nc(NC(=O)NS(=O)(=O)c2cccc(NC(=O)NC(C)(C)C)c2)n1` returned a melting point of 137 to 145 °C. The figure for `COC(=O)c1cc(OC(C)=O)c2cc(-c3ccc4c(c3)C(C)(C)CCC4(C)C)ccc2c1C` is 170 °C. As for `CC(C)C[C@H](NC(=O)c1ccccc1Cl)C(=O)N[C@@H](C(C)C)[C@@H](O)c1c(-c2ccccc2)c1=O`, the figure is 99 to 104 °C; as for `CCCCC1NCCc2ccc(C(=O)N[C@@H](Cc3cc(F)cc(F)c3)[C@H](O)CNCc3cccc(CC)c3)cc21` (stereo partly specified), 121 to 124 °C. The figure for `Cc1nc(N2CCN(Cc3ccc4nsnc4c3)C2=O)sc1C(=O)NCc1cccnc1` is 105 to 107 °C; for `COc1cc(Sc2ccncc2)ccc1[N+](=O)[O-]` it is 97 to 100 °C; for `COc1ccc(-c2nc(C(=O)C(F)(F)F)[nH]c2-c2ccc(OC)cc2)cc1` it is 191 to 192 °C. On to `COc1ccc(C=NNC(=N)N)cc1OC1CCCC1`, for which the melting point lay in the range of 100 to 103 °C. The figure for `Cc1cc(C)c(S(=O)(=O)N2CCCC2c2ccc(F)cc2)c(C)c1` (racemic) is 111 °C; for `COc1ccc2[nH]c(C(=O)C3(c4ccc(Cl)cc4)CCCC3)cc2c1` it is 157 to 159 °C. For the compound `OCC=CCOc1nc(F)c(Cl)cc1Cl`, the melting point was 30 °C. As for `Cc1ccc(C(=O)Nc2c[nH]nc2C(=O)NCCC#N)o1`, the figure is 135 to 137 °C; as for `CC(=O)Nc1ccc(SC2SCC(O)C(O)C2O)cc1` (stereo unspecified), 226 to 233 °C; as for `CCOC(=O)c1cn(CCF)c2nc(N3CCC(NC(C)=O)C3)c(F)cc2c1=O` (stereo unspecified), 269 to 270 °C. The figure for `COc1ccccc1CNc1ccc2cc(Nc3ccccn3)ccc2n1` is 134 °C; for `c1ccc(C2c3ccccc3-c3ncncc32)cc1` (stereo unspecified) it is 148 to 150 °C; for `COC(=O)/C=C/c1c(-c2ccc(F)cc2)cccc1C(C)C` it is 87 to 89 °C. As for `CN(C)CC1CCN(c2nc(N3CCOCC3)c3ncnc(N(C)Cc4cccc5ccccc45)c3n2)CC1`, the figure is 158 °C; as for `N#Cc1cc(Cn2cncn2)ccc1-c1ccc(O)c(Cl)c1`, 195 to 197 °C; as for `CC(C)Cn1c(CN)c(-c2ccccc2)c2cc(OCC(N)=O)ccc2c1=O`, 161 to 163 °C. Regarding `CC(C)(C)C(=O)C(C(c1ccc(Cl)cc1)n1cncn1)n1cncn1` (stereo unspecified), the melting point is 157 to 161 °C.

The compound `Cc1nc2scc(C)n2c1S(N)(=O)=O` returned a melting point of 177 to 178 °C.

For the compound `COc1ccc2c3c(c(=O)oc2c1OC)CN(Cc1ccccc1)CC3`, the melting point is 138 to 140 °C. For the compound `CCCCCCCCNC(=O)N1CCC(S(=O)(=O)c2ccc(CCNC[C@H](O)COc3ccc(O)c(C)c3)cc2)CC1`, the melting point fell in the range of 58 to 71 °C. Consider `O=C(O)CC1(CNC(=O)c2ccc(CO[N+](=O)[O-])cc2)CCCCC1`, for which the melting point was 127 to 128 °C. The figure for `COc1ccc2nc(NC(=O)C(CC3CCCC3)c3ccc(S(=O)(=O)CCc4ccccc4)cc3)sc2n1` (stereo unspecified) is 169 to 172 °C; for `COc1ccccc1OCC(O)CN1CCC(=O)CC1` (stereo unspecified) it is 77 to 78 °C; for `CCCCc1nc(CCNC(=O)OC(C)(C)C)c[nH]1` it is 118 to 120 °C. As for `CCCCn1c(C)c(C(=O)Nc2c(CC)cccc2CC)c(=O)c(Br)c1CC`, the figure is 132 to 134 °C; as for `Nc1cc(F)c(F)cc1S(N)(=O)=O`, 137 to 142 °C; as for `ClCCOc1ccc(CBr)cc1`, 64 to 66 °C. As for `COc1cccc(C=C2NC(=O)NC2=O)c1OCCc1ccccc1`, the figure is 199 to 201 °C; as for `CN(C)CC(C(O)c1ccc(N)cc1)N1CCC(Cc2ccccc2)CC1` (stereo unspecified), 121 to 125 °C. The compound `CC(=O)Nc1nc2c(C)cnc(-c3cccc([N+](=O)[O-])c3)n2n1` came in with a melting point of 245 to 247 °C. The figure for `Cc1nn(-c2ccccc2)c(Nc2ccccc2)c1CC(=O)O` is 111 to 113 °C; for `CCC(=O)Oc1cc(OC)cc(OC)c1C(=O)C=Cc1ccc(C)o1` it is 72.5 °C. The figure for `CCCC(=O)c1ccc(-c2ncccc2S(=O)(=O)Nc2ncc(C)nc2OC)cc1` is 130 to 131 °C. Take `O=C(C1CCN(c2ccncc2)CC1)N1CCN(S(=O)(=O)c2ccc3ccccc3c2)C(Cc2ccccc2)C1` (stereo unspecified): the melting point lay in the range of 186 to 188 °C. In the case of `CCOC(=O)CCc1cn(Cc2ccc(OCc3cn4c(Cl)cccc4n3)cc2)nc1OCC`, the melting point fell in the range of 69 to 70 °C. The figure for `O=C(CCl)N1CCSC1CCc1ccccc1O` (stereo unspecified) is 98 °C; for `CCN(CC)c1cccc2nc3n(c12)CC(=O)CCN3c1ccc(Cl)cc1Cl` it is 169 to 170 °C; for `CC(C)(C)c1ccc2c(c1)C=C(/C=C/C=C/C=C/C(=O)O)CO2` it is 200 to 202 °C. As for `CC(C)(O)C1CCC(CNC(=O)c2cccnc2Oc2ccc(F)cc2)CC1` (stereo unspecified), the figure is 78 to 80 °C; as for `N#Cc1c(N2CCCCC2)cc(-c2ccc3ccc4cccc5ccc2c3c45)c2c1Cc1ccccc1-2`, 168 to 169 °C; as for `c1n[nH]c2c1CCc1[nH]ncc1-2`, 219 to 221 °C. The figure for `CC(=O)OCc1nccc2[nH]c(=O)ccc12` is 162 to 165 °C; for `CCCCc1nc2c(N)nc3ccccc3c2n1CCCC(=O)c1ccccc1` it is 178 to 180 °C. On to `CNC(=O)c1cc(Cl)cc(Cl)c1NC(=O)c1cc(Br)nn1-c1ccccc1Cl`, for which the melting point is 209 to 210 °C. As for `CCOC(=O)C(=CNc1csnn1)C(=O)c1cc(F)c(Cl)nc1Cl`, the figure is 110 to 114 °C; as for `O=C1N(C(c2ccccc2)c2ccccc2)c2cccc(F)c2C12COc1cc3c(cc12)OCCO3` (stereo unspecified), 196 to 198 °C.

Consider `CC(C)(C)OC(=O)C1CCCN2CC(CBr)C(=O)N12` (stereo unspecified), for which the melting point was 88 to 89 °C. Turning to `O=C(CCc1cc(C2CCCCC2)c(O)c(C2CCCCC2)c1)NCCCCCCNC(=O)CCc1cc(C2CCCCC2)c(O)c(C2CCCCC2)c1`, the melting point came to 28 °C.

Source of the values: a melting point compilation (Tetko et al.; mined from patent text by program, amines drawn as free bases though some values may be those of a salt).
